From patent US20110224221A1, “HEMATOPOIETIC PROTECTION AGAINST IONIZING RADIATION USING SELECTIVE CYCLIN-DEPENDENT KINASE 4/6 INHIBITORS” (priority 2008, published 2011)
Entries after “also recorded” stand apart in the source; their conditions may differ.

What was measured:
tHDF cells = assay: γH2AX after IR; type: cell-based, human; settings: 24 hours prior to IR; PD0332991 100 nM (6 Gy), 2BrIC 2 μM (0-8 Gy)
Excerpt: FIG. 5A is a set of grayscale 40× images of phospho-γH2AX foci (nuclear) and phalloidin staining (cytoplasmic) of telomerized human diploid fibroblasts (tHDF) with (bottom row) and without (top row) 6 Gy ionizing radiation (IR). […] Scale bar=50 μm.
N=139 or greater for each condition; box=middle 50%, whiskers=0-25% and 75-100%. Significance determined by Kruskal-Wallis with Dunn post-hoc test for pairwise comparisons (*** p<0.0001).
FIG. 5F is a set of representative phospho-γH2AX (x-axis) dot plots after 0, 2, 4, 6, or 8 gray (Gy) of ionizing radiation with (right-hand column) or without (left-hand column) treatment with the selective cyclin-dependent kinase 4/6 (CDK4/6) inhibitor 2-bromo-12,13-dihydro-5H-indolo[2,3-a]pyrrolo[3,4]carbazole-5,6-dione (2BrIC) at 2 μM for 24 hours prior to exposure to ionizing radiation (IR). Cells that were not treated with 2BrIC were instead treated with vehicle (dimethyl sulfoxide (DMSO)) only. An increased fraction of phospho-γH2AX (x-axis) expressing cells is noted with increased doses of IR in DMSO treated cells.
γH2AX after IR: For γH2AX images, tHDF received 6 Gy IR with or without 24 hours of prior exposure to a CDK inhibitor. […] Images were analyzed for mean nuclear intensities were computed in ImageJ software (developed by the National Institutes of Health, Bethesda, Md., United States of America). […]

[1] = test system: human melanoma cell line WM2664; assay: Cell cycle analysis (BrdU incorporation in vitro), WM2664; type: cell-based; settings: WM2664, 24 hours exposure
Excerpt: FIG. 3A is a set of graphs showing the dose-response curves for cycle analysis in both cyclin-dependent kinase 4/6 (CKD4/6)-dependent cells (human telomerized human diploid fibroblasts (tHDFs, left-hand column of graphs) and a CDK4/6-dependent human melanoma cell line (WM2664, middle column of graphs)) and in CDK4/6-independent cells (a human retinoblastoma tumor suppressor protein (RB)-null melanoma cell line (A2058), right-hand column of graphs). […] The percentage of cells in the G1 phase is indicated by the data shown in the open triangles, while the percentage of cells in the S phase is shown by the data in the shaded circles and the percentage of cells in the G2/M phase is indicated by the data in the double “x”s.
FIG. 8 is a set of representative cell cycle dot-plots for cyclin-dependent kinase 4/6 (CDK4/6)-dependent (WM2664) human melanoma cells (top two rows) and CDK4/6-independent (A2058) human melanoma cells (bottom two rows) that had been treated with dimethyl sulfoxide (DMSO) as a control or with 300 nM, 1 μM, 3 μM, 10 μM or 30 μM of trans-4-[[6-ethylamino)-2-[[2-phenylmethyl)-1H-indol-5-yl]amino]-4-pyrimidinyl]amino]]-cyclohexanol (CINK4).
Cell Lines: KPTR1, KPTR4. and KPTR5 were derived from tumor-bearing TyrRAS+Ink4a/Arf−/− by standard procedures and cultured in RPMI+10% fetal bovine serum (FBS). Telomerized HDFs (tHDFs, also known as HS68) were cultured in DMEM+10% FBS with penicillin and streptomycin. The same conditions were used for A2058 and WM2664, human melanoma cell lines with known RB-pathway mutations: A2058 is RB-null, whereas WM2664 lacks p16^INK4a/Arf. See Shields, et al., Cancer Res., 67, 1502-1512 (2007). Cells were irradiated for indicated doses in a Rad Source Inc. (Alpharetta, Ga., United States of America) RS-2000 Biological Irradiator at 160 kV, 25.0 mA, at distance setting 1, with a dose rate of 103 rads/min.
BrdU Incorporation in vitro: Cells were plated and allowed to adhere overnight or at least 6 hours prior to adding CDK4/6 inhibitor at the indicated concentrations. Cells were grown for 24 hours in the presence of CDK4/6 inhibitor. 15 minutes prior to cell harvesting, 5-Bromo-2-deoxyuridine (BrdU) was added to the media at a final concentration of 10 μM. The cells were then washed, trypsinized, pelleted, fixed, permeabilized, stained, and measured on a flow cytometer as described in manufacturer directions for the BrdU Kit (BD Biosciences Pharmingen, San Diego, Calif., United States of America).
The proliferation of seven RB-deficient human small cell lung cancer lines was also resistant to the selective CDK4/6 inhibitors.

pancreatic islet = settings: same dose and schedule (150 mg/kg daily); cited from earlier work

| Compound | γH2AX formation after IR (tHDF cells) | cell cycle effect [1] | proliferation in CDK4/6 dependent normal murine tissues such as the pancreatic islet (pancreatic islet) |
| --- | --- | --- | --- |
| O=C1NC(=O)c2c1c1c3ccccc3[nH]c1c1[nH]c3cc(Br)ccc3c21 [Compound 2BrIC, 2-bromo-12,13-dihydro-5H-indolo[2,3-a]pyrrolo[3,4]-carbazole-5,6-dione] | attenuated; also recorded: potently decreases IR-induced DNA damage; also recorded: decreases the induction of phospho-γH2AX expression | strong, reversible G1-arrest |  |
| CC(=O)c1c(C)c2cnc(Nc3ccc(N4CCNCC4)cn3)nc2n(C2CCCC2)c1=O [PD0332991, 6-acetyl-8-cyclopentyl-5-methyl-2-(5-piperazin-1-yl-pyridin-2-ylamino)-8H-pyrido-[2,3-d]-pyrimidin-7-one] | attenuated | strong, reversible G1-arrest | abrogated proliferation |
